Several values for one entry are separate records, joined by “and”; a condition that tells them apart may be missing. Equal values may be shown once.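 Interpolation was linear, between the two tested concentrations surrounding the appropriate level; five concentrations were tested over 48 hours in 96-well plates. Here, GI50 denotes the concentration required for 50% inhibition of growth. The concentration for full growth arrest is given as TGI.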
Columns and labels:
Assay in all cases: NCI-60 cell line screen, 48 h
[1] = system: RXF 393 renal
[2] = system: SR leukemia
[3] = system: MALME-3M melanoma
[4] = system: OVCAR-4 ovarian
[5] = system: UACC-62 melanoma
[6] = system: CCRF-CEM leukemia
[7] = system: UACC-257 melanoma
[8] = system: SF-539 CNS
[9] = system: HCT-116 colon
[10] = system: UO-31 renal

| Structure (SMILES) | GI50 [1] | TGI [1] | GI50 [2] | TGI [2] [µM] | GI50 [3] | TGI [3] | GI50 [4] | TGI [4] | GI50 [5] | TGI [5] | GI50 [6] | TGI [6] [µM] | GI50 [7] [µM] | TGI [7] | GI50 [8] | TGI [8] | GI50 [9] | TGI [9] | GI50 [10] [µM] | TGI [10] [µM] |
| --- | --- | --- | --- | --- | --- | --- | --- | --- | --- | --- | --- | --- | --- | --- | --- | --- | --- | --- | --- | --- |
| O=C(/C=C/c1cccs1)Nc1ncc(Cc2ccccc2F)s1 | 0.192 µM | 0.508 µM | 0.0522 µM | > 100 | 0.359 µM | > 100 µM | 0.791 µM | > 100 µM | 0.207 µM | > 100 µM | 0.254 µM | > 100 | > 100 | > 100 µM | 0.219 µM | 0.649 µM | 0.273 µM | > 100 µM | 0.437 | > 100 |
| CC(C)S(=O)(=O)n1c(N)nc2ccc(/C(=N/O)c3ccccc3)cc21 | – | 45.5 µM | – | 27.2 | – | > 100 µM | – | > 100 µM | – | 81.8 µM | – | 57.2 | – | > 100 µM | – | 49.6 µM | – | 40.2 µM | – | 47 |
| O=C(O)CCN1C(=O)/C(=C/C(Cl)=C/c2ccccc2)SC1=S | 1.69 µM | 3.38 µM | 0.929 µM | 5.47 | 2.22 µM | 5.23 µM | 4.79 µM | 18 µM | 1.52 µM | 3.42 µM | 1.87 µM | 8.25 | 1.96 | 7.81 µM | 2.67 µM | 7.12 µM | 1.82 µM | 5.06 µM | 1.56 | 3.06 |
| S=C1OC2C3C4CC5C3C(O1)C1C5C4C21 (centres undefined) | – | > 100 µM | – | > 100 | – | > 100 µM | – | > 100 µM | – | > 100 µM | – | > 100 | – | > 100 µM | – | > 100 µM | – | > 100 µM | – | > 100 |
| OCC(O)C(OC1OC(CO)C(O)C(O)C1O)c1nn(-c2ccc(F)cc2)c2nc3cc(Cl)c(Cl)cc3cc12 (centres undefined) | – | > 100 µM | – | > 100 | – | > 100 µM | – | > 100 µM | – | > 100 µM | – | > 100 | – | > 100 µM | – | > 100 µM | – | > 100 µM | – | > 100 |
| C(=C1/CCCCC([n+]2ccccc2)=N1)/c1ccccc1 | – | > 100 µM | – | > 100 | – | > 100 µM | – | > 100 µM | – | > 100 µM | – | > 100 | – | – | – | > 100 µM | – | > 100 µM | – | > 100 |
| O=C(O)C(O)C(O)C1[O][Sb][O]C1CO (centres undefined) | > 100 µM | > 100 µM | > 100 µM | > 100 | 23.6 µM and 7.62 µM | 68.3 µM and 23.6 µM | > 100 µM | > 100 µM | > 100 µM | > 100 µM | 33.3 µM and 18.9 µM | > 100 | > 100 | > 100 µM | > 100 µM | > 100 µM | > 100 µM | > 100 µM | > 100 | > 100 |
| C1CCN2CC34CC(CC5CCCN(C6CCCC3N6)C54)C2C1 (centres undefined) | – | > 100 µM | – | > 100 | – | > 100 µM | – | > 100 µM | – | > 100 µM | – | > 100 | – | > 100 µM | – | > 100 µM | – | > 100 µM | – | – |
| NC(=O)c1ccc(-c2c3ccccc3cc3c2ccc2ccccc23)cc1 | 2.12 µM | 7.48 µM | 1.3 µM | > 100 | 4.99 µM | 54 µM | 5.79 µM | 29.7 µM | 4.32 µM | 40.2 µM | 5.83 µM | > 100 | 12.1 | > 100 µM | 3.59 µM | 15.5 µM | 2.36 µM | 10.8 µM | 7.1 | 39.5 |
| C[C@H]1CC(=O)[C@@]2(O)C#C/C=C\C#C[C@@H]3Nc4c(cc(O)c5c4C(=O)c4ccccc4C5=O)[C@]24O[C@]314 | 0.0373 µM | 0.0684 µM and 0.242 µM | – | 0.0426 | – | 0.518 µM | 0.351 µM | 0.648 µM and 1.92 µM | – | 0.133 µM | 0.0025 µM | – | 0.00794 | 0.204 µM and 0.286 µM | < 0.001 µM | 0.0219 µM and 0.0281 µM | 0.0025 µM | 0.178 µM and 0.0836 µM | – | – |
| O=C(Nc1ccc(-c2nc3ccc(NC(=O)c4ccc(Cl)cc4)cc3[nH]2)cc1)c1ccc(Cl)cc1 | 0.0186 µM | 1.93 µM | 0.769 µM | 4.34 | 3.79 µM | 11.4 µM | 1.76 µM | 3.47 µM | 4.21 µM | 16.4 µM | 0.433 µM | 4.41 | 11.5 | 24.1 µM | 0.0709 µM | 6.22 µM | 2.71 µM | 10.8 µM | 8.19 | 20 |
| c1ccc(CN(Cc2ccccn2)Cn2cccn2)nc1 | – | > 100 µM | – | > 100 | – | – | – | > 100 µM | – | 44.4 µM | – | > 100 | – | > 100 µM | – | > 100 µM | – | 63.7 µM | – | > 100 |
| N#CC(C#N)=C/C=C/c1cccc([N+](=O)[O-])c1 | 0.8 µM | 2.06 µM | 0.576 µM | 15.3 | 1.69 µM | 8.87 µM | 3.09 µM | 13.9 µM | 1.3 µM | 2.96 µM | 0.556 µM | 15.2 | 1.33 | 3.94 µM | 2.55 µM | 18.4 µM | 0.277 µM | 1.1 µM | – | – |
| C=C1C(=O)O[C@H]2[C@H](OC(C)=O)[C@@H](C)CCC/C(C)=C/CC[C@]3(CO3)[C@H](O)C[C@@H]12 | 3.16 µM | 11.7 µM | 1.32 µM | 3.94 | 2.69 µM | 12.3 µM | 6.89 µM | 21.9 µM | 12.7 µM | 25.3 µM | 1.87 µM | 4.77 | 12.4 | 26.1 µM | 3.2 µM | 9.27 µM | – | – | 6.29 | 19.9 |
| O=C(O)c1c(Cl)c(Cl)c(Cl)c(Cl)c1-c1c2cc(I)c(=O)c(I)c-2oc2c(I)c(O)c(I)cc12 | 27.5 µM and 15 µM | 45.4 µM | 39.1 µM and 31.6 µM | 87.6 | – | – | 93.1 µM and 43.9 µM | 105 µM | 18.6 µM and 31.6 µM | 41.3 µM and 68.6 µM | 30.2 µM and 41.9 µM | 95.7 | 53.5 | 163 µM | 32.7 µM and 34.6 µM | 89.7 µM | 45.4 µM and 37.2 µM | 81.5 µM | 43.5 | 107 |
| Nc1nc(Cl)cc(NCCCCCCCCCCNc2cc(Cl)nc(N)n2)n1 | – | > 100 µM | – | > 100 | – | – | – | > 100 µM | – | > 100 µM | – | > 100 | – | > 100 µM | – | > 100 µM | – | > 100 µM | – | > 100 |

From PubChem BioAssay (NCI)
